Experiments:
Experiment in all cases: relative viability (nuclei count vs DMSO), 5 days (fraction); higher = more cells survive
NCI-H1975 = test system: NCI-H1975
Outline: (§1)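 Medians of duplicate plates are given as relative viability. That measure is the nuclei count in treated wells divided by the count in vehicle wells. Counts were taken on 4× images of lung cancer cell lines in 1536-well plates, 5 days after pin-tool dosing the day after seeding with one drug alone or a fixed anchor-drug dose plus five library-drug doses (not always all listed) in √10 steps.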

SW 900 = test system: SW 900
Outline: as §1

NCI-H2170 = test system: NCI-H2170
Outline: as §1

NCI-H1755 = test system: NCI-H1755
Outline: as §1

A-427 = test system: A-427
Outline: as §1

NCI-H23 = test system: NCI-H23
Outline: as §1

SK-MES-1 = test system: SK-MES-1
Outline: as §1

H3255 = test system: H3255
Outline: as §1

EKVX = test system: EKVX
Outline: as §1

ChaGo-K-1 = test system: ChaGo-K-1
Outline: as §1

LOU-NH91 = test system: LOU-NH91
Outline: as §1

HCC-366 = test system: HCC-366
Outline: as §1

EMC-BAC-2 = test system: EMC-BAC-2
Outline: as §1

PC-3 [JPC-3] = test system: PC-3 [JPC-3]
Outline: as §1

NCI-H520 = test system: NCI-H520
Outline: as §1

NCI-H1792 = test system: NCI-H1792
Outline: as §1

COR-L 105 = test system: COR-L 105
Outline: as §1

LK-2 = test system: LK-2
Outline: as §1

NCI-H1734 = test system: NCI-H1734
Outline: as §1

NCI-H596 = test system: NCI-H596
Outline: as §1

NCI-H1666 = test system: NCI-H1666
Outline: as §1

NCI-H441 = test system: NCI-H441
Outline: as §1

With `CC1(C)CCC(c2ccc(Cl)cc2)=C(CN2CCN(c3ccc(C(=O)NS(=O)(=O)c4ccc(N[C@H](CCN5CCOCC5)CSc5ccccc5)c(S(=O)(=O)C(F)(F)F)c4)cc3)CC2)C1` [Navitoclax] + O=C(c1cc(Cc2n[nH]c(=O)c3ccccc23)ccc1F)N1CCN(C(=O)C2CC2)CC1 [Olaparib] (partner 8 µM) the relative viability (NCI-H1975; first compound 0.005 µM) was 0.77, the relative viability (NCI-H1975; first compound 0.01581 µM) was 0.854 and the relative viability (NCI-H1975; first compound 0.05 µM) was 0.773. The relative viability (NCI-H1975; first compound 0.1581 µM) was 0.813, the relative viability (NCI-H1975; first compound 0.5 µM) was 0.755 and the relative viability (SW 900; first compound 0.005 µM) was 0.936. For the same molecule, the relative viability (SW 900; first compound 0.01581 µM) was 1.01, the relative viability (SW 900; first compound 0.1581 µM) was 0.947 and the relative viability (SW 900; first compound 0.5 µM) was 0.841. For the same molecule, the relative viability (NCI-H2170; first compound 0.005 µM) was 0.574, the relative viability (NCI-H2170; first compound 0.01581 µM) was 0.62 and the relative viability (NCI-H2170; first compound 0.05 µM) was 0.53. The relative viability (NCI-H2170; first compound 0.1581 µM) was 0.58, the relative viability (NCI-H2170; first compound 0.5 µM) was 0.56 and the relative viability (NCI-H1755; first compound 0.005 µM) was 0.831. For the same molecule, the relative viability (NCI-H1755; first compound 0.01581 µM) was 0.929, the relative viability (NCI-H1755; first compound 0.05 µM) was 0.686 and the relative viability (NCI-H1755; first compound 0.1581 µM) was 0.818. The relative viability (NCI-H1755; first compound 0.5 µM) was 0.897, the relative viability (A-427; first compound 0.005 µM) was 0.71 and the relative viability (A-427; first compound 0.01581 µM) was 0.682. It also gave a relative viability (A-427; first compound 0.05 µM) of 0.782, a relative viability (A-427; first compound 0.1581 µM) of 0.808 and a relative viability (A-427; first compound 0.5 µM) of 0.737. The relative viability (NCI-H23; first compound 0.005 µM) was 0.328, the relative viability (NCI-H23; first compound 0.01581 µM) was 0.301 and the relative viability (NCI-H23; first compound 0.05 µM) was 0.272. The relative viability (NCI-H23; first compound 0.1581 µM) was 0.291, the relative viability (NCI-H23; first compound 0.5 µM) was 0.343 and the relative viability (SK-MES-1; first compound 0.005 µM) was 0.648. It also gave a relative viability (SK-MES-1; first compound 0.01581 µM) of 0.677, a relative viability (SK-MES-1; first compound 0.05 µM) of 0.775 and a relative viability (SK-MES-1; first compound 0.1581 µM) of 0.636. The relative viability (SK-MES-1; first compound 0.5 µM) was 0.814, the relative viability (H3255; first compound 0.005 µM) was 0.563 and the relative viability (H3255; first compound 0.01581 µM) was 0.626. It also gave a relative viability (H3255; first compound 0.05 µM) of 0.57, a relative viability (H3255; first compound 0.1581 µM) of 0.57 and a relative viability (H3255; first compound 0.5 µM) of 0.506. It also gave a relative viability (EKVX; first compound 0.005 µM) of 0.887, a relative viability (EKVX; first compound 0.01581 µM) of 0.994 and a relative viability (EKVX; first compound 0.05 µM) of 0.784. It also gave a relative viability (EKVX; first compound 0.1581 µM) of 0.891, a relative viability (EKVX; first compound 0.5 µM) of 0.885 and a relative viability (ChaGo-K-1; first compound 0.005 µM) of 0.445. The relative viability (ChaGo-K-1; first compound 0.01581 µM) was 0.472, the relative viability (ChaGo-K-1; first compound 0.05 µM) was 0.28 and the relative viability (ChaGo-K-1; first compound 0.1581 µM) was 0.453. The relative viability (ChaGo-K-1; first compound 0.5 µM) was 0.461, the relative viability (LOU-NH91; first compound 0.005 µM) was 0.909 and the relative viability (LOU-NH91; first compound 0.01581 µM) was 0.928. The relative viability (LOU-NH91; first compound 0.05 µM) was 0.697, the relative viability (LOU-NH91; first compound 0.1581 µM) was 0.658 and the relative viability (LOU-NH91; first compound 0.5 µM) was 0.37. The relative viability (HCC-366; first compound 0.005 µM) was 0.362, the relative viability (HCC-366; first compound 0.01581 µM) was 0.43 and the relative viability (HCC-366; first compound 0.1581 µM) was 0.404. It also gave a relative viability (HCC-366; first compound 0.5 µM) of 0.399, a relative viability (EMC-BAC-2; first compound 0.005 µM) of 0.461 and a relative viability (EMC-BAC-2; first compound 0.01581 µM) of 0.483. The relative viability (EMC-BAC-2; first compound 0.05 µM) was 0.456, the relative viability (EMC-BAC-2; first compound 0.1581 µM) was 0.434 and the relative viability (EMC-BAC-2; first compound 0.5 µM) was 0.452. For the same molecule, the relative viability (PC-3 [JPC-3]; first compound 0.005 µM) was 1.1, the relative viability (PC-3 [JPC-3]; first compound 0.01581 µM) was 1.14 and the relative viability (PC-3 [JPC-3]; first compound 0.05 µM) was 1.22. For the same molecule, the relative viability (PC-3 [JPC-3]; first compound 0.1581 µM) was 1.07, the relative viability (PC-3 [JPC-3]; first compound 0.5 µM) was 0.871 and the relative viability (NCI-H520; first compound 0.005 µM) was 0.346. For the same molecule, the relative viability (NCI-H520; first compound 0.01581 µM) was 0.299, the relative viability (NCI-H520; first compound 0.05 µM) was 0.336 and the relative viability (NCI-H520; first compound 0.1581 µM) was 0.318. It also gave a relative viability (NCI-H520; first compound 0.5 µM) of 0.33, a relative viability (NCI-H1792; first compound 0.005 µM) of 0.408 and a relative viability (NCI-H1792; first compound 0.01581 µM) of 0.662. It also gave a relative viability (NCI-H1792; first compound 0.1581 µM) of 0.386, a relative viability (NCI-H1792; first compound 0.5 µM) of 0.326 and a relative viability (COR-L 105; first compound 0.005 µM) of 0.707. For the same molecule, the relative viability (COR-L 105; first compound 0.01581 µM) was 0.749, the relative viability (COR-L 105; first compound 0.05 µM) was 0.664 and the relative viability (COR-L 105; first compound 0.1581 µM) was 0.614. It also gave a relative viability (COR-L 105; first compound 0.5 µM) of 0.666, a relative viability (LK-2; first compound 0.005 µM) of 0.797 and a relative viability (LK-2; first compound 0.01581 µM) of 0.744. It also gave a relative viability (LK-2; first compound 0.05 µM) of 0.618, a relative viability (LK-2; first compound 0.1581 µM) of 0.726 and a relative viability (LK-2; first compound 0.5 µM) of 0.798. For the same molecule, the relative viability (NCI-H1734; first compound 0.005 µM) was 0.626, the relative viability (NCI-H1734; first compound 0.01581 µM) was 0.67 and the relative viability (NCI-H1734; first compound 0.1581 µM) was 0.534. For the same molecule, the relative viability (NCI-H1734; first compound 0.5 µM) was 0.535, the relative viability (NCI-H596; first compound 0.005 µM) was 0.663 and the relative viability (NCI-H596; first compound 0.01581 µM) was 0.758. For the same molecule, the relative viability (NCI-H596; first compound 0.05 µM) was 0.533, the relative viability (NCI-H596; first compound 0.1581 µM) was 0.598 and the relative viability (NCI-H596; first compound 0.5 µM) was 0.626. For the same molecule, the relative viability (NCI-H1666; first compound 0.005 µM) was 0.749, the relative viability (NCI-H1666; first compound 0.01581 µM) was 0.71 and the relative viability (NCI-H1666; first compound 0.05 µM) was 0.683. For the same molecule, the relative viability (NCI-H1666; first compound 0.1581 µM) was 0.765, the relative viability (NCI-H1666; first compound 0.5 µM) was 0.822 and the relative viability (NCI-H441; first compound 0.005 µM) was 0.529. For the same molecule, the relative viability (NCI-H441; first compound 0.01581 µM) was 0.528, the relative viability (NCI-H441; first compound 0.05 µM) was 0.627 and the relative viability (NCI-H441; first compound 0.1581 µM) was 0.429. The relative viability (NCI-H441; first compound 0.5 µM) was 0.5.
